# Experimental data as given in patent publication US8431556B2, “C-21-keto lupane derivatives preparation and use thereof” (Vertex Pharmaceuticals Incorporated, priority 2008, dated 2013).
# Tested on: HIV-1 (HIVIIIB)
# Test: HIV-1 replication in MT2 cell line with and without 30% human serum (viral RT activity in supernatant)
# Assay type: cell-based
# Conditions: Human immunodeficiency virus 1, MT2, MT-2 cells, with 30% human serum, average IC50 if tested more than once, read-out: MT-2 (HIVIIIB) with 30% HS IC50 range
# Procedure: HIV-1 Replication in MT2 cell line with and without 30% human serum: The cells are infected at a Multiciplicity of Infection (MOI) of 0.5 for 3 h and then washed twice with complete media to remove residual virus. Cells are then resuspended at 0.5×10^6/ml in complete medium (RPMI, 10% FBS, 1% sodium pyruvate), and seeded into 96-well plates (6.25×10^4/well). The cells are cultured in the presence or absence of various concentrations of test compounds in serial dilutions for 3 days at 37° C. The test compounds are serially diluted in complete medium supplemented or not with 30% human serum. After 3 days, 100 μL of cultured medium with cells are replaced with 120 μL of freshly diluted test compounds in complete medium containing or not 30% Human serum. The level of HIV-1 replication is determined at days 5 after infection by the presence of viral RT activity in harvested supernatant fluid. The IC50 and IC90 values for the virus replication are determined by using GRAPHPAD PRISM software.
# The IC50 of the compounds tested in accordance with the HIV replication activity assay MT-2 (HIVIIIB) are represented in Table 4 (without HS) and Table 5 (with 30% HS)
row,Structure (SMILES),IC50 [nM]
1,"CC(C)C1=C2[C@H]3CC[C@@H]4[C@@]5(C)CC[C@H](OC(=O)CC(C)(C)C(=O)O)C(C)(C)[C@@H]5CC[C@@]4(C)[C@]3(C)CC[C@@]2(C(=O)N2CCCCC2)CC1=O [9-6, 3β-O-(3′,3′-Dimethylsuccinyl)-21-oxolup-18-en-28-oic acid N-piperidinyl acetamide]",< 199
2,"CC(C)C1=C2[C@H]3CC[C@@H]4[C@@]5(C)CC[C@H](OC(=O)CC(C)(C)C(=O)O)C(C)(C)[C@@H]5CC[C@@]4(C)[C@]3(C)CC[C@@]2(C(=O)N2CCOCC2)CC1=O [9-7, 3β-O-(3′,3′-Dimethylsuccinyl)-21-oxolup-18-en-28-oic acid N-morpholyl acetamide]",< 199
3,"CC(=O)N1CCN(C(=O)[C@@]23CC[C@]4(C)[C@H](CC[C@@H]5[C@@]6(C)CC[C@H](OC(=O)CC(C)(C)C(=O)O)C(C)(C)[C@@H]6CC[C@]54C)C2=C(C(C)C)C(=O)C3)CC1 [9-8, 3β-O-(3′,3′-Dimethylsuccinyl)-21-oxolup-18-en-28-oic acid N-(4-acetylpiperazinyl) acetamide]",< 199
4,"CC(C)C1=C2[C@H]3CC[C@@H]4[C@@]5(C)CC[C@H](OC(=O)CC(C)(C)C(=O)O)C(C)(C)[C@@H]5CC[C@@]4(C)[C@]3(C)CC[C@@]2(C(=O)N2CCN(C)CC2)CC1=O [9-9, 3β-O-(3′,3′-Dimethylsuccinyl)-21-oxolup-18-en-28-oic acid N-(4-methylpiperazinyl) acetamide]",< 199
5,"CC(C)C1=C2[C@H]3CC[C@@H]4[C@@]5(C)CC[C@H](OC(=O)CC(C)(C)C(=O)O)C(C)(C)[C@@H]5CC[C@@]4(C)[C@]3(C)CC[C@@]2(C(=O)Nc2ccccc2)CC1=O [9-10, 3β-O-(3′,3′-Dimethylsuccinyl)-21-oxolup-18-en-28-oic acid N-benzamide]",< 199
6,"CC(C)C1=C2[C@H]3CC[C@@H]4[C@@]5(C)CC[C@H](OC(=O)CC(C)(C)C(=O)O)C(C)(C)[C@@H]5CC[C@@]4(C)[C@]3(C)CC[C@@]2(C(=O)N(C)Cc2ccccc2)CC1=O [9-11, 3β-O-(3′,3′-Dimethylsuccinyl)-21-oxolup-18-en-28-oic acid N-methyl-N-benzylamide]",< 199
7,"CC(C)C1=C2[C@H]3CC[C@@H]4[C@@]5(C)CC[C@H](OC(=O)CC(C)(C)C(=O)O)C(C)(C)[C@@H]5CC[C@@]4(C)[C@]3(C)CC[C@@]2(C(=O)NCc2ccccc2Cl)CC1=O [9-12, 3β-O-(3′,3′-Dimethylsuccinyl)-21-oxolup-18-en-28-oic acid N-2-chloro-benzylamide]",< 199
8,"CC(C)C1=C2[C@H]3CC[C@@H]4[C@@]5(C)CC[C@H](OC(=O)CC(C)(C)C(=O)O)C(C)(C)[C@@H]5CC[C@@]4(C)[C@]3(C)CC[C@@]2(C(=O)NCc2ccc(Cl)cc2)CC1=O [9-14, 3β-O-(3′,3′-Dimethylsuccinyl)-21-oxolup-18-en-28-oic acid N-4-chloro-benzylamide]",< 199
9,"COc1ccc(CNC(=O)[C@@]23CC[C@]4(C)[C@H](CC[C@@H]5[C@@]6(C)CC[C@H](OC(=O)CC(C)(C)C(=O)O)C(C)(C)[C@@H]6CC[C@]54C)C2=C(C(C)C)C(=O)C3)cc1 [9-15, 3β-O-(3′,3′-Dimethylsuccinyl)-21-oxolup-18-en-28-oic acid N-4-methoxy-benzylamide]",< 199
10,"CC(C)C1=C2[C@H]3CC[C@@H]4[C@@]5(C)CC[C@H](OC(=O)CC(C)(C)C(=O)O)C(C)(C)[C@@H]5CC[C@@]4(C)[C@]3(C)CC[C@@]2(C(=O)NCc2ccccn2)CC1=O [9-16, 3β-O-(3′,3′-Dimethylsuccinyl)-21-oxolup-18-en-28-oic acid N-pyridin-2-ylmethylamide]",< 199
11,"CC(C)C1=C2[C@H]3CC[C@@H]4[C@@]5(C)CC[C@H](OC(=O)CC(C)(C)C(=O)O)C(C)(C)[C@@H]5CC[C@@]4(C)[C@]3(C)CC[C@@]2(C(=O)NCc2cccnc2)CC1=O [9-17, 3β-O-(3′,3′-Dimethylsuccinyl)-21-oxolup-18-en-28-oic acid N-pyridin-3-ylmethylamide]",< 199
12,"CC(C)C1=C2[C@H]3CC[C@@H]4[C@@]5(C)CC[C@H](OC(=O)CC(C)(C)C(=O)O)C(C)(C)[C@@H]5CC[C@@]4(C)[C@]3(C)CC[C@@]2(C(=O)NCc2ccncc2)CC1=O [9-18, 3β-O-(3′,3′-Dimethylsuccinyl)-21-oxolup-18-en-28-oic acid N-pyridin-4-ylmethylamide]",< 199
13,"CC(C)C1=C2[C@H]3CC[C@@H]4[C@@]5(C)CC[C@H](OC(=O)CC(C)(C)C(=O)O)C(C)(C)[C@@H]5CC[C@@]4(C)[C@]3(C)CC[C@@]2(C(=O)NCCNC(=O)OC(C)(C)C)CC1=O [9-20, 3β-O-(3′,3′-Dimethylsuccinyl)-21-oxolup-18-en-28-oic acid N-(2-acetylamino-ethyl)-carbamic acid tert-butyl ester]",< 199
14,"CC(C)C1=C2[C@H]3CC[C@@H]4[C@@]5(C)CC[C@H](OC(=O)CC(C)(C)C(=O)O)C(C)(C)[C@@H]5CC[C@@]4(C)[C@]3(C)CC[C@@]2(C(=O)NCCN)CC1=O [9-21, 3β-O-(3′,3′-Dimethylsuccinyl)-21-oxolup-18-en-28-oic acid N-(2-amino-ethyl)-acetamide]",< 199
15,"CC(=O)NCCNC(=O)[C@@]12CC[C@]3(C)[C@H](CC[C@@H]4[C@@]5(C)CC[C@H](OC(=O)CC(C)(C)C(=O)O)C(C)(C)[C@@H]5CC[C@]43C)C1=C(C(C)C)C(=O)C2 [9-22, 3β-O-(3′,3′-Dimethylsuccinyl)-21-oxolup-18-en-28-oic acid N-(2-acetylamino-ethyl)-acetamide]",< 199
16,"CC(C)NC(=O)NCCNC(=O)[C@@]12CC[C@]3(C)[C@H](CC[C@@H]4[C@@]5(C)CC[C@H](OC(=O)CC(C)(C)C(=O)O)C(C)(C)[C@@H]5CC[C@]43C)C1=C(C(C)C)C(=O)C2 [9-23, 3β-O-(3′,3′-Dimethylsuccinyl)-21-oxolup-18-en-28-oic acid N-[2-(3-isopropyl-ureido)-ethyl]-acetamide]",< 199
17,"COC(=O)NCCNC(=O)[C@@]12CC[C@]3(C)[C@H](CC[C@@H]4[C@@]5(C)CC[C@H](OC(=O)CC(C)(C)C(=O)O)C(C)(C)[C@@H]5CC[C@]43C)C1=C(C(C)C)C(=O)C2 [9-24, 3β-O-(3′,3′-Dimethylsuccinyl)-21-oxolup-18-en-28-oic acid N-(2-acetylamino-ethyl)-carbamic acid methyl ester]",< 199
18,"CC(C)C1=C2[C@H]3CC[C@@H]4[C@@]5(C)CC[C@H](OC(=O)CC(C)(C)C(=O)O)C(C)(C)[C@@H]5CC[C@@]4(C)[C@]3(C)CC[C@@]2(C(=O)Nc2ccccn2)CC1=O [9-25, 3β-O-(3′,3′-Dimethylsuccinyl)-21-oxolup-18-en-28-oic acid N-pyridin-2-yl-acetamide]",< 199

# Same assay, conditions: Human immunodeficiency virus 1, MT2, MT-2 cells, without HS, average IC50 if tested more than once, read-out: MT-2 (HIVIIIB) IC50 range
row,Structure (SMILES),IC50 [nM]
1,"CC(C)C1=C2[C@H]3CC[C@@H]4[C@@]5(C)CC[C@H](OC(=O)CC(C)(C)C(=O)O)C(C)(C)[C@@H]5CC[C@@]4(C)[C@]3(C)CC[C@@]2(C(=O)NCc2ccccc2)CC1=O [9-1, 3β-O-(3′,3′-Dimethylsuccinyl)-21-oxolup-18-en-28-oic acid N-benzylamide]",< 199
2,"CNC(=O)[C@@]12CC[C@]3(C)[C@H](CC[C@@H]4[C@@]5(C)CC[C@H](OC(=O)CC(C)(C)C(=O)O)C(C)(C)[C@@H]5CC[C@]43C)C1=C(C(C)C)C(=O)C2 [9-2, 3β-O-(3′,3′-Dimethylsuccinyl)-21-oxolup-18-en-28-oic acid N-methylamide]",< 199
3,"CC(C)NC(=O)[C@@]12CC[C@]3(C)[C@H](CC[C@@H]4[C@@]5(C)CC[C@H](OC(=O)CC(C)(C)C(=O)O)C(C)(C)[C@@H]5CC[C@]43C)C1=C(C(C)C)C(=O)C2 [9-3, 3β-O-(3′,3′-Dimethylsuccinyl)-21-oxolup-18-en-28-oic acid N-isopropylamide]",< 199
4,"CC(C)C1=C2[C@H]3CC[C@@H]4[C@@]5(C)CC[C@H](OC(=O)CC(C)(C)C(=O)O)C(C)(C)[C@@H]5CC[C@@]4(C)[C@]3(C)CC[C@@]2(C(=O)NC2CCCCC2)CC1=O [9-4, 3β-O-(3′,3′-Dimethylsuccinyl)-21-oxolup-18-en-28-oic acid N-cyclohexylamide]",< 199
5,"CC(C)C1=C2[C@H]3CC[C@@H]4[C@@]5(C)CC[C@H](OC(=O)CC(C)(C)C(=O)O)C(C)(C)[C@@H]5CC[C@@]4(C)[C@]3(C)CC[C@@]2(C(=O)NCC2CCCCC2)CC1=O [9-5, 3β-O-(3′,3′-Dimethylsuccinyl)-21-oxolup-18-en-28-oic acid N-cyclohexyl methylamide]",< 199
6,"CC(C)C1=C2[C@H]3CC[C@@H]4[C@@]5(C)CC[C@H](OC(=O)CC(C)(C)C(=O)O)C(C)(C)[C@@H]5CC[C@@]4(C)[C@]3(C)CC[C@@]2(C(=O)NCc2cccc(Cl)c2)CC1=O [9-13, 3β-O-(3′,3′-Dimethylsuccinyl)-21-oxolup-18-en-28-oic acid N-3-chloro-benzylamide]",< 199
7,"COc1ccc(CCNC(=O)[C@@]23CC[C@]4(C)[C@H](CC[C@@H]5[C@@]6(C)CC[C@H](OC(=O)CC(C)(C)C(=O)O)C(C)(C)[C@@H]6CC[C@]54C)C2=C(C(C)C)C(=O)C3)cc1 [9-19, 3β-O-(3′,3′-Dimethylsuccinyl)-21-oxolup-18-en-28-oic acid N-[2-(4-methoxy-phenyl)-ethyl]-acetamide]",< 199
